The test has as its target NTSR1 (Homo sapiens, UniProt P30989). Briefly: […]-Tyr3-NTS radioligand displacement on intact NCI-H1299 cells. Format: cell-based. (In general: In a radioligand displacement assay an active substance lowers the binding of a labelled ligand.)

Chain of NTSR1 (P30989 whole entry): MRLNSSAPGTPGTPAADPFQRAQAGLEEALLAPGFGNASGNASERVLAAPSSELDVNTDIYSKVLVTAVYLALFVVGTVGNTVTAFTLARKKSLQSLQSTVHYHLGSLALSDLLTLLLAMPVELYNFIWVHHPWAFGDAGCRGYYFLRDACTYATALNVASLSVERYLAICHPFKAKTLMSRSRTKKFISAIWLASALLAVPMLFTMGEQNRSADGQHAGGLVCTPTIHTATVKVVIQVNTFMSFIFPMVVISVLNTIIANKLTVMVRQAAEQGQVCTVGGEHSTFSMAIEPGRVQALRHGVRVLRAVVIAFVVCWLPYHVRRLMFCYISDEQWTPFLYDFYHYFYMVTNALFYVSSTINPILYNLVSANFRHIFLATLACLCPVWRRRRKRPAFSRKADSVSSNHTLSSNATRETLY

As to `COc1cccc(OC)c1-c1cc(C(=O)NC2(C(=O)O)C3CC4CC(C3)CC2C4)nn1-c1ccnc2cc(Cl)ccc12` (stereo not shown) [SR48692], the IC50 (in general, the point on the concentration scale where inhibition reaches its midpoint) turned out to be 205 nM.

(Values after PMC3965624 (Life sciences, 2014).)
